Measured values published in patent publication US20070275904A1, “CONJUGATES OF AZIRIDINYL-EPOTHILONE ANALOGS AND PHARMACEUTICAL COMPOSITIONS COMPRISING SAME” (BRISTOL-MYERS SQUIBB COMPANY, priority 2006, published 2007).
Like-named read-outs stand apart in the source and are kept apart here.

Key:
[1] = system: clonogenic KB cancer cells; experiment: Clonogenic cell survival (colony formation) assay, KB cells; assay type: cell-based, human; conditions: FIG. 3; for fold by which compound G is more potent than the named compound (IC90): KB cells, 17 hours exposure
Experimental: Cancer cells were seeded at 3.0E+05 cells in a T75 flask with 10 ml of RPMI1640 media, free of folic acid, and containing 10% fetal bovine serum and 25 mM HEPES. Cells were grown in a 37° C. incubator containing 5% CO2 for 2 days. On day 2, supernatants were removed from the flasks, and the flasks were divided into 2 groups. One group of cells were incubated with 5 ml of media containing […] of folic acid (Sigma) for 30 minutes and the others were grown in 5 ml of media without added folic acid. Cells were then treated with 20 nM of epothilone, epothilone analog, conjugated epothilone, or conjugated epothilone analog for one hour. At the end of the incubation, the drugs were removed from the flasks and the cells were washed with PBS buffer 3×. After washing, 5 ml of complete media were added into each flask, and the cell was grown in the CO2 incubator for 23 hours. The next morning, the cells were removed from the flasks by trypsinization, cell numbers were determined, and then cells were plated in a 6 well plates. Ten days after plating, colonies were stained with crystal violet and counted. The surviving fractions were determined.
This is important because it is the aziridine epothilone analog, e.g., Compound G, that mediates the antitumor effects upon release from folic acid. […] The concentration needed to kill 90% of clonogenic KB cancer cells (IC90) was determined after a drug exposure duration of 17 hours.

[2] = system: A2780Tax human ovarian carcinoma cell line; experiment: In vitro MTS assay, paclitaxel-resistant A2780Tax versus A2780; assay type: cell-based
Experimental: (§1) In vitro cytotoxicity was assessed in tumor cells using a tetrazolium-based colorimetric assay which takes advantage of the metabolic conversion of MTS (3-(4,5-dimethylthiazol-2-yl)-5-(3-carboxymethoxyphenyl)-2-([…])-2H-tetrazolium, inner salt) to a reduced form that absorbs light at 492 nm. Cells were seeded 24 hr prior to addition of the epothilone, epothilone analog, conjugated epothilone, or conjugated epothilone analog. Following a 72 hour incubation at 37° C. with serially diluted compound, MTS, in combination with the electron coupling agent phenazine methosulfate, was added to the cells. The incubation was continued for 3 hours, then the absorbancy of the medium at 492 nm was measured with a spectrophotometer to obtain the number of surviving cells relative to control populations. The results are expressed as median cytotoxic concentrations (IC50 values).
(§2) Other epothilone analogs, e.g., aziridinyl epothilones, are known in the art (see, e.g., U.S. Pat. No. 6,399,638; Regueiro-Ren, A, et al. (2001) Org. Letters. 3:2693-96) and show potent antitumor cytotoxicity. For example, an MTS assay that compared the relative cytotoxic potency of a number of epothilone analogs against a pair of taxane-resistant cancer cell lines (HCTVM46 and […]) was conducted (see Table 1). HCTVM46 is a human colon carcinoma cell line derived from the sensitive HCT116 parent line, and is resistant to taxanes due to overexpression of the 170 kD p-glyprotein drug efflux transporter. A2780Tax is a human ovarian carcinoma cell line derived from the parent A2780 line, and is resistant to paclitaxel as a result of a mutation in the tubulin amino acid sequence that impairs the ability of paclitaxel to bind.

[3] = system: HCT116VM46 (HCTVM46) human colon carcinoma cell line; assay type: cell-based; conditions: R/S ratio = HCT116 IC50/HCT116VM46IC50 as printed
Experimental: as §1, §2

[4] = system: A2780 ovarian carcinoma cell line; experiment: cells; assay type: cell-based, human; conditions: read-out: A2780 IC5
Experimental: as §1, §2
(§3) As is shown in Table 1, various aziridinyl epothilone analogs (Compounds CC-EE) show potent antitumor activity against both the HCT116 colon and A2780 ovarian carcinoma cell lines, compared to other known antitumor agents, e.g., paclitaxel, compound AA, and epothilone B.

[5] = system: HCT116 colon carcinoma cell line; experiment: cells; assay type: cell-based, human; conditions: read-out: HCT116 IC50
Experimental: as §1, §2, §3

[6] = KB in vivo FRα(+) tumor model, xenografts in nude mice; conditions: mouse, in vivo; KB model, nude mice, IV; read-out: maximum tolerated dose (MTD)
Text: (§4) Female CD2F1 mice (Harlan Sprague-Dawley Inc., 20-22 g) maintained in a controlled environment and provided with water and food ad libitum were used in these studies. The murine FRα(−) Madison 109 (M109) lung carcinoma (Marks et al., 1977) and the FR-expressing (FRα(+)) 98M109 variant were used to evaluate the efficacy of the epothilone, epothilone analog (e.g., epothilone derivative), folate-epothilone conjugate, or folate-epothilone analog conjugate. In addition, the human head and neck epidermoid carcinoma KB grown in nude mice was also used for this purpose.
(§5) For administration of epothilones or epothilone analogs to mice, an excipient consisting of the following was used: CREMOPHOR®/ethanol/water (1:1:8, v/v). The compounds were first dissolved in a mixture of CREMOPHOR®/ethanol (50:50). Final dilution to the required dosage strength was made less than 1 hr before drug administration. Mice were administered the agents by bolus IV injection through the tail vein. Folate-epothilone conjugates or folate-epothilone analog conjugates were prepared in sterile phosphate buffered saline and administered to mice by IV bolus injection through the tail vein at a volume of 0.01 mL/g of mice. Treatment of each animal was based on individual body weight. […]
(§6) Tumor response was determined by measurement of tumors with a caliper twice a week, until the tumors reached a predetermined “target” size of 1 gm. […]
(§7) Antitumor activity was evaluated at the maximum tolerated dose (MTD) which is defined as the dose level immediately […] which excessive toxicity (i.e. more than one death) occurred. When death occurred, the day of death was recorded. […]
(§8) To estimate tumor cell kill, the tumor volume doubling time (TVDT) was first calculated with the formula: TVDT=Median time (days) for control tumors to reach target size−Median time (days) for control tumors to reach half the target size And, Log cell kill=T−C÷(3.32×TVDT) Statistical evaluations of data were performed using Gehan's generalized Wilcoxon test.

[7] = FRα(−) M109 parent tumor model in mice; assay type: in vivo; conditions: female, CD2F1, mouse, in vivo, M109 model, IV, read-out: maximum tolerated dose (MTD)
Text: as §4
(§9) For administration of epothilones or epothilone analogs to mice, an excipient consisting of the following was used: CREMOPHOR®/ethanol/water (1:1:8, v/v). The compounds were first dissolved in a mixture of CREMOPHOR®/ethanol (50:50). Final dilution to the required dosage strength was made less than 1 hr before drug administration. Mice were administered the agents by bolus IV injection through the tail vein. Folate-epothilone conjugates or folate-epothilone analog conjugates were prepared in sterile phosphate buffered saline and administered to mice by IV bolus injection through the tail vein at a volume of 0.01 mL/g of mice. Treatment of each animal was based on individual body weight.
(§10) The required number of animals needed to detect a meaningful response were pooled at the start of the experiment and each was given a subcutaneous inoculation of a tumor brei (2% w/v). Tumors were allowed to grow for 4 days. On the fourth day, animals were evenly distributed to various treatment and control groups. Treated animals were checked daily for treatment related toxicity/mortality. Each group of animals was weighed before the initiation of treatment (Wt1) and then again following the last treatment dose (Wt2). The difference in body weight (Wt2−Wt1) provides a measure of treatment-related toxicity.
(§11) Tumor response was determined by measurement of tumors with a caliper twice a week, until the tumors reached a predetermined “target” size of 1 gm. Tumor weights (mg) were estimated from the formula: Tumor weight=(length×width^2)÷2
as §7, §8

[8] = system: FRα(−) M109 murine lung carcinoma; experiment: FRα(−) M109 parent tumor model in mice; assay type: in vivo; conditions: IV bolus, FIG. 5
Text: as §4, §9, §10, §11, §7, §8

[9] = molecular target: T1, FR expressed on KB tumor cells (Homo sapiens, UniProt P15328); experiment: Displacement of radiolabeled folic acid from FR on KB tumor cells; assay type: binding; conditions: compared to folic acid, RA of folic acid=1.0
T1 construct: FR expressed on KB tumor cells grown to confluence; endogenous in cells; host or cells: KB tumor cells
T1 sequence (P15328 25-234): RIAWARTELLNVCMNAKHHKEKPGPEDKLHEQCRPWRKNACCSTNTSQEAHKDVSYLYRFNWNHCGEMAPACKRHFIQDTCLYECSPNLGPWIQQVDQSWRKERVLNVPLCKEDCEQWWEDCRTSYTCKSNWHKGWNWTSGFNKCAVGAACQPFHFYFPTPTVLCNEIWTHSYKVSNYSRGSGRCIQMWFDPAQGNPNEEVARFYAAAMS
Experimental: The binding of folate conjugates of Compound AA to FR was determined in an assay that measures displacement of radiolabeled folic acid from FR expressed on KB tumor cells grown to confluence.

Phase II clinical trials = conditions: in vivo
[10] = system: KB nasopharyngeal epidermoid carcinoma xenografts; experiment: KB in vivo FRα(+) tumor model, xenografts in nude mice; conditions: FIG. 4
Text: as §4, §5, §6, §7, §8

FRα(+) 98M109 tumors = experiment: FRα(+) 98M109 tumor model, competition with a folate analog; assay type: in vivo, mice; conditions: folate analog at 20-fold excess of the dose of compound J; FIG. 6
Text: as §4, with “purpose. […]” for “purpose.”
as §6, §7, §8

[11] = Homo sapiens, HCT-116, Mean IC50 ± SD from four separate experiments, MTS, 72 hour incubation
[12] = Mean IC50 ± SD from four separate experiments, MTS, 72 hour incubation

Compound: C/C(=C\c1csc(C)n1)[C@@H]1CC2[C@@H](CCC[C@H](C)[C@H](O)[C@@H](C)C(=O)C(C)(C)[C@@H](O)CC(=O)O1)[N@@]2CCO (relative stereo) [Compound G, [1S-[1R*,3R*(E),7R*,10S*,11R*,12R*,16S*]]-7,11-Dihydroxy-17-[2-hydroxyethyl]-8,8,10,12-tetramethyl-3-[1-methyl-2-(2-methyl-4-thiazolyl)ethenyl]-4-oxa-17-azabicyclo[14.1.0]heptadecane-5,9-dione]
- IC90, concentration needed to kill 90% of clonogenic KB cancer cells ([1]; drug exposure duration of 17 hours): 4.3 nM

Compound: C/C(=C\c1csc(C)n1)C1C[C@@H]2N[C@@H]2CCC[C@H](C)[C@H](O)[C@@H](C)C(=O)C(C)(C)[C@@H](O)CC(=O)O1 (stereo partly drawn) [Compound CC]
- R/S Ratio (A2780) [2]: 4.7
- R/S Ratio (HCT116) [3]: 3.1
- fold by which compound G is more potent than the named compound (IC90) [1]: ~2 fold
- IC50 ([4]; Homo sapiens, A2780, 72 h): 3.4 ± 1.5 nM
- IC50 ([5]; Homo sapiens, HCT-116, 72 h): 4.2 ± 2.8 nM

Compound: C/C(=C\c1csc(C)n1)[C@@H]1C[C@@H]2O[C@]2(C)CCC[C@H](C)[C@H](O)[C@@H](C)C(=O)C(C)(C)[C@@H](O)CC(=O)N1 [ixabepilone]
- MTD [6]: 5 µmol/kg
- MTD [7]: 5 µmol/kg
- antitumor activity in FRα(−) M109 parent tumor model [8]: active at its MTD
- fold by which compound G is more potent than the named compound (IC90) [1]: ~6 fold

Compound: CC(=O)O[C@H]1C(=O)[C@@]2(C)[C@H]([C@H](OC(=O)c3ccccc3)[C@]3(O)C[C@H](OC(=O)[C@H](O)[C@@H](NC(=O)c4ccccc4)c4ccccc4)C(C)=C1C3(C)C)[C@]1(OC(C)=O)CO[C@@H]1C[C@@H]2O [paclitaxel]
- R/S Ratio (A2780) [2]: 22.1
- IC50 [5, 11]: 3.3 ± 1 nM

Compound: C/C(=C\c1csc(C)n1)C1C[C@H]2[C@@H](CCC[C@H](C)[C@H](O)[C@@H](C)C(=O)C(C)(C)[C@@H](O)CC(=O)O1)N2C (stereo partly drawn) [DD]
- R/S Ratio (A2780) [2]: 4.1
- R/S Ratio (HCT116) [3]: 0.6
- IC50 ([4]; Homo sapiens, A2780, 72 h): 0.25 ± 0.06 nM
- IC50 ([5]; Homo sapiens, HCT-116, 72 h): 0.37 ± 0.13 nM

Compound: Nc1nc2ncc(CNc3ccc(C(=O)N[C@@H](CCC(=O)O)C(=O)O)cc3)nc2c(=O)[nH]1 [folic acid]
- relative affinity (RA) for folate receptor [9]: 1.0

Compound: C/C(=C\c1csc(CN)n1)[C@@H]1CC2O[C@]2(C)CCC[C@H](C)[C@H](O)[C@@H](C)C(=O)C(C)(C)[C@@H](O)CC(=O)O1 (stereo partly drawn) [Compound AA]
- R/S Ratio (A2780) [2]: 3
- R/S Ratio (HCT116) [3]: 14.8
- activity in Phase II clinical trials (Phase II clinical trials): has activity
- fold by which compound G is more potent than the named compound (IC90) [1]: ~4 fold
- IC50 ([4]; Homo sapiens, A2780, Mean IC50 ± SD from four separate experiments, MTS, 72 hour incubation): 1.1 ± 0.4 nM
- IC50 [5, 11]: 1.2 ± 0.3 nM

Compound: C/C(=C\c1csc(C)n1)[C@@H]1C[C@@H]2O[C@]2(C)CCC[C@H](C)[C@H](O)[C@@H](C)C(=O)C(C)(C)[C@@H](O)CC(=O)O1 [Epothilone B]
- R/S Ratio (A2780) [2]: 2.5
- R/S Ratio (HCT116) [3]: 0.5
- IC50 [4, 12]: 0.23 ± 0.09 nM
- IC50 [5, 12]: 0.4 ± 0.13 nM

Compound: C/C(=C\c1csc(C)n1)[C@@H]1C[C@H]2[C@@H](CCC[C@H](C)[C@H](O)[C@@H](C)C(=O)C(C)(C)[C@@H](O)CC(=O)O1)N2CCOC(=O)OCCSSC[C@H](NC(=O)[C@H](CC(=O)O)NC(=O)[C@H](CCCNC(=N)N)NC(=O)[C@H](CC(=O)O)NC(=O)CC[C@H](NC(=O)c1ccc(NCc2cnc3nc(N)[nH]c(=O)c3n2)cc1)C(=O)O)C(=O)O (stereo partly drawn) [Compound J]
- toxicity at the two dose levels below MTD ([10]; KB model): minimal toxicity
- antitumor effects compared at the MTDs ([10]; versus ixabepilone): superior antitumor effects than ixabepilone
- effect of co-administered folate analog on antitumor effects (FRα(+) 98M109 tumors): protect FRα(+) 98M109 tumors from the antitumor effects of compound J
- MTD [7]: 2.4 µmol/kg
- antitumor activity in FRα(−) M109 parent tumor model [8]: poor activity at all dose levels tested
- relative affinity (RA) for folate receptor [9]: 0.77
